For this assay, the system named is RARγ. The experiment in a line: chimeric receptor transactivation assay, RARγ. Type of assay: cell-based. To be noted: judged from Table 1 data, versus RARα and RARβ. In outline: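 Agonism at RARα, β and γ measured separately in a chimeric receptor transactivation format (U.S. Pat. No. 5,455,265). EC50 reported; efficacy expressed as percent of the maximal response of reference agonist TTNPB.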

Consider `COc1cc2c(cc1C(/C=C\c1ccc(C(=O)O)cc1)=NO)C(C)(C)CCC2(C)C` [Compound 13b, Z-4-[3-hydroxyimino-3-(3-methoxy-5,5,8,8-tetramethyl-5,6,7,8-tetrahydro-naphthalen-2-yl)-propenyl]-benzoic acid], for which the “selectivity to the RARγ receptors” value is given as “less selective”.

These data come from patent US7476673B2, “Disubstituted chalcone oximes as selective agonists of RARγ retinoid receptors” (Allergan, Inc., priority 2003, dated 2009).
